In data set [1] the test system is E. mitis oocysts. Put plainly: Sporulation in 2% Proxitane with anionic detergents, follow up trial (Example 4). It is filed as cell-based. The note with it: detergent 0.05% in 2% Proxitane; FIG. 19. How it is done:
(§1) The 2% Proxitane (~1000 ppm peracetic acid) sporulation media was prepared as described in Example 1. Detergents were added to the 2% Proxitane (~1000 ppm peracetic acid) solution at two concentrations: 0.05% solution and 0.5% solution. A 30% solution of Sarkosyl in 2% Proxitane (~1000 ppm peracetic acid) was prepared first before diluting to the desired concentration. Docusate dissolved in water with heat (up 90° C.) before adding the Proxitane.
(§2) Oocysts were sporulated in 15 or 50 mL tubes with at least 80% headspace (i.e. 10 mL liquid in 50 mL tube max). The amount of solids (unsporulated oocysts+debris) in this experiments was set to 2%, i.e. a solids ratio of 1:49.
(§3) All samples were incubated at 27° C. and about 150 rpm in the shaking incubator for 48 hours. Following sporulation, samples were either stored at 4-8° C. or evaluated immediately.
(§4) Sporulation level and oocyst health was evaluated as described in Example 1.

In another data set the test system is E. acervulina oocysts. It is filed as cell-based. As to conditions: for relative difference in oocyst counts compared to group 1 (percentage difference), R1: replicate R1, post sporulation; for relative difference in oocyst counts compared to group 1 (percentage difference), R3: replicate R3, post sporulation.
Another data set has as its system E. necatrix oocysts. Nature of the data set: Sporulation in different media: sporulation and post-sporulation oocyst count (Example 1). It is filed as cell-based. As to conditions: for relative difference in oocyst counts compared to group 1 (percentage difference), R1: replicate R1, post sporulation; for relative difference in oocyst counts compared to group 1 (percentage difference), R3: replicate R3, post sporulation.

Data set [2] relates to E. mitis oocysts. It is filed as cell-based. The note with it: for relative difference in oocyst counts compared to group 1 (percentage difference), R1: replicate R1, post sporulation; for relative difference in oocyst counts compared to group 1 (percentage difference), R3: replicate R3, post sporulation.
The test system of data set [3] is Eimeria oocysts (E. acervulina, E. brunetti, E. maxima, E. mitis, E. necatrix and E. tenella). Nature of the data set: Sporulation of Eimeria oocysts in different media, all species (Example 1). It is filed as cell-based. As to conditions: for Average sporulation % across all species: 48 hours at 27° C., 150 rpm, three replicates, six species.
The next data set has as its system E. brunetti oocysts. Put plainly: Sporulation in different media: sporulation and post-sporulation oocyst count (Example 1). It is filed as cell-based. As to conditions: for relative difference in oocyst counts compared to group 1 (percentage difference), R1: replicate R1, post sporulation; for relative difference in oocyst counts compared to group 1 (percentage difference), R3: replicate R3, post sporulation.

Another data set concerns E. tenella oocysts. It is filed as cell-based. As to conditions: for relative difference in oocyst counts compared to group 1 (percentage difference), R1: replicate R1, post sporulation; for relative difference in oocyst counts compared to group 1 (percentage difference), R3: replicate R3, post sporulation.
Data set [4] deals with E. maxima oocysts. It is filed as cell-based. The note with it: for relative difference in oocyst counts compared to group 1 (percentage difference), R1: replicate R1, post sporulation; for relative difference in oocyst counts compared to group 1 (percentage difference), R3: replicate R3, post sporulation.
The test system of data set [5] is E. maxima oocysts. Put plainly: Sporulation in 2% Proxitane with detergents, initial experiments (Example 4). It is filed as cell-based. On the procedure: as §1, §2, §3, §4
The subject of data set [6] is microorganisms other than the Eimeria. It is filed as cell-based. The note with it: across 1%, 3% and 5% solids and all species.
For data set [7] the test system is unchanged. It is filed as cell-based. The note with it: replicate sterility averaged across the 6 species; FIG. 13.
The test system of data set [8] is Staphylococcus aureus ATCC 6538. The note with it: after the 48 hours, 27° C.; FIG. 18A. On the procedure: (§5) Each organism was exposed to each chemical mimicking the duration and conditions they would be used with for sporulation or sterilisation.
(§6) Organism suspensions were prepared by sub-culturing onto an appropriate growth plate and incubating under standard conditions. The growth was harvested and suspended in appropriate media. The starting titre for most organisms once inoculated into the test media was approximately ≤10^6 CFU/mL.
(§7) 0.1 mL of the harvested bacterial or fungal suspension was added to 9.9 mL of the solution being tested in a sterile glass vial (McCartney container). The inoculated solutions were incubated at 27° C. Zero hours samples were done with sterile water and not the solution being tested to determine a baseline for log reduction calculations. At the appropriate time point, 1 mL of sample was combined with 9 mL of sodium thiosulfate neutralizer (the 10:1 dilution). Serial dilutions in Peptone water (PEP) from 10^−2 to 10^−6 were plated out onto either TSA (bacterial) or SDA (fungal) plates. The 10^−1 dilution in neutraliser was also plated. Plates were incubated according to the organisms' requirements and the number of colonies counted at the end of the incubation period.

Data set [9] relates to Candida albicans ATCC 10231. As to conditions: 27° C., FIG. 18A. On the procedure:
as §5, §6, §7

Data set [10] relates to Pseudomonas aeruginosa ATCC 9027. As to conditions: 27° C.; FIG. 18A. How it is done: as §5, §6, §7
The next data set relates to Eimeria oocysts. Nature of the data set: Sporulation at variable solids content (Example 2). It is filed as cell-based. As to conditions: 1%, 3% and 5% solids.

Data on six compounds can be found in patent US20260265684A1, “EIMERIA VACCINE” (priority 2024, published 2026).

On to `CCCCCCCCCCCC(=O)N(C)CC(=O)[O-].[Na+]` [sarkosyl, Sarkosyl], for which the “sticking of debris to oocyst walls” value in the data set on E. mitis oocysts [1] is listed as “sticking of debris to oocyst walls was found”.
`O=CCCCC=O` [0.2% glutaraldehyde, glutaraldehyde]: the “relative difference in oocyst counts compared to group 1 (percentage difference), R1” value in the data set on E. acervulina oocysts came to 1.31%; with E. necatrix oocysts, 7%; in the data set with E. mitis oocysts [2], 8.68%; in the data set on E. brunetti oocysts, 3%; in the data set with E. tenella oocysts, 3.12%; in the data set on E. maxima oocysts [4], 3%. Also, the “relative difference in oocyst counts compared to group 1 (percentage difference), R3” value in the data set with E. acervulina oocysts is recorded as −1%; with E. necatrix oocysts, −61.49%; in the data set on E. mitis oocysts [2], 1%; in the data set with E. brunetti oocysts, 91%; with E. tenella oocysts, 30.08%; with E. maxima oocysts [4] it was −3%. Besides, the “Average sporulation % across all species” value in data set [3] was determined as 78%.
For the compound `O=S(=O)([N-]Cl)c1ccccc1.[Na+]` [1% chloramine B, chloramine B], the “relative difference in oocyst counts compared to group 1 (percentage difference), R1” value in the data set with E. acervulina oocysts was 9.43%; in the data set on E. necatrix oocysts it was 24%; with E. mitis oocysts [2], 12.16%; with E. brunetti oocysts, −7%; in the data set with E. tenella oocysts, −1.16%; with E. maxima oocysts [4], −4%. Further, the “relative difference in oocyst counts compared to group 1 (percentage difference), R3” value with E. acervulina oocysts is −137%; in the data set on E. necatrix oocysts, −27.13%; in the data set with E. mitis oocysts [2] it was 8%; in the data set on E. brunetti oocysts it was 91%; in the data set with E. tenella oocysts, 40.83%; with E. maxima oocysts [4], −4%. Also, in data set [3], the “Average sporulation % across all species” value stood at 81%.
On to `CCCCCCCCCCCCOS(=O)(=O)[O-].[Na+]` [SDS], for which the percent sporulation in the data set with E. maxima oocysts [5] (detergent 0.5% in 2% Proxitane, 2% solids, 48 hours) came to 40%. In the data set with E. maxima oocysts [5] (detergent in 2% Proxitane, data not shown), the “sticking of debris and oocysts” value is recorded as “reduce sticking”. For the same compound, the oocyst damage entry in the data set on E. maxima oocysts [5] (upon prolonged storage) is reported as “cause damage to the oocyst wall”.
Consider `[K+].[K+].[O]=[Cr](=[O])([O-])[O][Cr](=[O])(=[O])[O-]` [2% potassium dichromate, potassium dichromate, reference compound], for which the “sterility outcome (in words)” value in data set [6] was “failed to sterilise the material”. In [7], the sterility result was “failed to achieve sterility”.
Consider `OO` [0.5% hydrogen peroxide, hydrogen peroxide], for which the “relative difference in oocyst counts compared to group 1 (percentage difference), R1” value in the data set on E. acervulina oocysts is listed as 11.16%; in the data set with E. necatrix oocysts it was 25%; with E. mitis oocysts [2], 29.90%; in the data set with E. brunetti oocysts it was −13%; with E. tenella oocysts, 17.92%; in the data set with E. maxima oocysts [4], 5%. Further, the “relative difference in oocyst counts compared to group 1 (percentage difference), R3” value in the data set on E. acervulina oocysts is reported as −298%; in the data set with E. necatrix oocysts, −15.15%; in the data set on E. mitis oocysts [2], 17%; with E. brunetti oocysts it was 92%; with E. tenella oocysts, 26.75%; with E. maxima oocysts [4], −13%. In addition, in [6], the “samples failing sterility (fail rate)” value is 21%. Also, the viability after treatment result in data set [8] and in [9] (after the 48 hours) was “still viable” in each case. In addition, in data set [9], the “reduction of titre before going back up at the last time point” value stood at 4.32 logs. Further, the time to inactivation entry in data set [10] is on record as “within the first hour”. For the same compound, in data set [3], the “Average sporulation % across all species” value turned out to be 81%. Further, in data set [3] (averaged sporulation from 3 replicates, across all the species tested (FIGS. 7-12)), the “sporulating oocysts compared with control group 1” value is recorded as “comparable to or better than control group 1”. For the same compound, the “sporulation compared with dichromate (in words)” value with Eimeria oocysts was “good sporulation compared to dichromate except with 5% solids”. The compound also returned a sterility in data set [7] of 80%.
